Values of other authors, collected in US7718385B2, “Bioactivation of alkylating agents for cancer treatment” (priority 2003, dated 2010).

What was measured:
[1] = test system: SN12C; conditions: cited from earlier work
[2] = test system: HOP-62; conditions: HOP-62, Non-Small Cell Lung, cited from earlier work
[3] = test system: COLO 205; conditions: COLO 205, Colon, cited from earlier work

For `CC1=C(CO)C2=C(C)C3(CC3)[C@@](C)(O)C(=O)C2=C1` [Irofulven, 6-hydroxymethylacylfulvene], the GI50 ([1]; Renal) is listed as 398 nM, the TGI ([1]; Renal) is listed as 5.01E−06 and the “log(GI50)” value ([1]; Renal) is listed as −6.4. For the same compound, the “log(LC50)” value ([1]; Renal) was −4.3, the “log(TGI)” value ([1]; Renal) was −5.3 and the CC50 ([1]; read-out: LC50, Renal) was 50100 nM. The GI50 [2] was 158 nM, the TGI [2] was 3.98E−07 and the “log(GI50)” value [2] was −6.8. The “log(LC50)” value [2] was −5.9, the “log(TGI)” value [2] was −6.4 and the CC50 ([2]; read-out: LC50) was 1260 nM. For the same compound, the GI50 [3] was 158 nM, the TGI [3] was 5.01E−07 and the “log(GI50)” value [3] was −6.8. The “log(LC50)” value [3] was −6.2, the “log(TGI)” value [3] was −6.3 and the CC50 ([3]; read-out: LC50) was 631 nM.
